Results as given in patent publication US8268747B2, “Safening penoxsulam herbicide injury in water-seeded, direct-seeded and transplanted paddy rice” (Dow AgroSciences, LLC., priority 2009, dated 2012).

How the values were obtained:
[1] = system: Oryza sativa 'M205' (rice); conditions: in vivo
Protocol: (§1) Evaluation of Postemergence Herbicidal Safening in Water-Seeded Rice
(§2) Pre-germinated rice was applied directly into a flooded rice paddy. The rice paddy was prepared as per normal cultural practices, by applying appropriate fertilizers, working and leveling the ground before flooding, with water flooded across the entire field to a depth of 1 to 5 inches prior to seeding with the pre-germinated rice seed.
(§3) Treatments consisted of penoxsulam and clomazone applied alone and in combination directly into the flooded rice paddy as granular formulated treatments. These treatments could also be applied as liquid applications directly into the water. Clomazone was applied the day of rice seeding, at 13 days after rice seeding, and in combination with penoxsulam at 13 days after rice seeding. Penoxsulam was applied alone and in combination with clomazone at 13 days after rice seeding.
(§4) Colby's equation was used to determine the herbicidal effects expected from the mixtures (Colby, S. R. 1967. Calculation of the synergistic and antagonistic response of herbicide combinations. Weeds 15:20-22.).
(§5) The following equation was used to calculate the expected activity of mixtures containing two active ingredients, A and B: Expected=A+B−(A×B/100)
(§6) A=observed efficacy of active ingredient A at the same concentration as used in the mixture.
(§7) B=observed efficacy of active ingredient B at the same concentration as used in the mixture.

[2] = system: Leptochloa fascicularis (sprangletop); experiment: % visual weed control in water-seeded rice, LEFFA; assay type: in vivo; conditions: 13 days after seeding, 27 days after treatment
Protocol: as §2, §3, §4, §5, §6, §7

[3] = system: Oryza sativa 'M205' (rice); experiment: Rice % stand reduction, postemergence safening in water-seeded rice
Protocol: as §1, §2, §3, §4, §5, §6, §7

[4] = system: Cyperus difformis (smallflower umbrella sedge); experiment: % visual weed control in water-seeded rice, CYPDI; assay type: in vivo; conditions: 13 days after seeding, 27 days after treatment
Protocol: as §2, §3, §4, §5, §6, §7

[5] = system: Echinochloa oryzoides (watergrass); experiment: % visual weed control in water-seeded rice, ECHOR; assay type: in vivo; conditions: 13 days after seeding, 27 days after treatment
Protocol: as §2, §3, §4, §5, §6, §7

COc1cnc(OC)n2nc(NS(=O)(=O)c3c(OCC(F)F)cccc3C(F)(F)F)nc12 [Penoxsulam, 2-(2,2-difluoroethoxy)-N-(5,8-dimethoxy[1,2,4]triazolo[1,5-c]pyrimidin-2-yl)-6-(trifluoromethyl)benzenesulfonamide]
Rice % Visual Injury Ratings ORYSA (1) Obs [1]: 12%
Rice % Visual Injury Ratings ORYSA (2) Obs [1]: 9%
Rice % Visual Injury Ratings ORYSA (3) Obs [1]: 5%
injury to rice (text summary of Table 1) [1]: slight injury
% Weed Control Ratings LEFFA (2) Obs ([2]; penoxsulam 40 g ai/ha alone): 74%
Rice % Stand Reduction Ratings ORYSA (1) Exp ([3]; in vivo): 27%
Rice % Stand Reduction Ratings ORYSA (1) Obs ([3]; in vivo): 27%
Rice % Stand Reduction Ratings ORYSA (2) Exp ([3]; in vivo): 33%
Rice % Stand Reduction Ratings ORYSA (2) Obs ([3]; in vivo): 33%
Rice % Stand Reduction Ratings ORYSA (3) Exp ([3]; in vivo): 33%
Rice % Stand Reduction Ratings ORYSA (3) Obs ([3]; in vivo): 33%
impact on the rice stand (text summary of Table 2) ([3]; in vivo): slight negative impact
% Weed Control Ratings CYPDI (3) Obs ([4]; penoxsulam 40 g ai/ha alone): 99%
% Weed Control Ratings ECHOR (1) Obs ([5]; penoxsulam 40 g ai/ha alone): 98%

CC1(C)CON(Cc2ccccc2Cl)C1=O [Clomazone, 2-[(2-chlorophenyl)methyl]-4,4-dimethyl-3-isoxazolidinone]
visual injury to rice (text summary of Table 1) [1]: 0-3%
% Weed Control Ratings LEFFA (2) Obs ([2]; clomazone 224 g ai/ha alone): 98%
% Weed Control Ratings LEFFA (2) Obs ([2]; clomazone 336 g ai/ha alone): 99%
% Weed Control Ratings LEFFA (2) Obs ([2]; clomazone 448 g ai/ha alone): 99%
effect on the rice stand (text summary of Table 2) ([3]; clomazone alone): negligible effect
Rice % Stand Reduction Ratings ORYSA (3) Exp ([3]; in vivo): 3%
Rice % Stand Reduction Ratings ORYSA (3) Obs ([3]; in vivo): 3%
% Weed Control Ratings CYPDI (3) Obs ([4]; clomazone 224 g ai/ha alone): 73%
% Weed Control Ratings CYPDI (3) Obs ([4]; clomazone 336 g ai/ha alone): 88%
% Weed Control Ratings CYPDI (3) Obs ([4]; clomazone 448 g ai/ha alone): 87%
% Weed Control Ratings ECHOR (1) Obs ([5]; clomazone 224 g ai/ha alone): 93%
% Weed Control Ratings ECHOR (1) Obs ([5]; clomazone 336 g ai/ha alone): 96%
% Weed Control Ratings ECHOR (1) Obs ([5]; clomazone 448 g ai/ha alone): 97%
